Results reported in patent publication US20090117593A1, “T. Cruzi-derived neurotrophic agents and methods of use therefor” (Tufts University, priority 2006, published 2009).
“Also recorded” adds a separate entry of the source.

Legend:
Assay type in all cases: cell-based
Erk1/2 = Erk1/2 phosphorylation in PC12 cells; details: 5 minutes; control peptides 10 μM
Experimental: Activation state of TrkA, Erk1/2 and Akt kinases and transcription factor CREB was analyzed by assessing phosphorylation by Western blot with appropriate phospho-specific antibodies. For this, cells were plated in complete medium at a density of 3×10^5 cells/ml overnight on 6-well plates (BECTON DICKINSON LABWARE, Franklin Lakes, N.J.). The medium was changed to serum-free medium and the cells cultured for an additional 24 hours to reduce background phosphorylation. […] Antibody reaction was visualized by horseradish peroxidase (HRP)-conjugated secondary antibody and enhanced chemiluminescence kit (ECL). Some blots were stripped in appropriate buffer (50 mM Tris HCl, pH 7.8, 2% SDS, 1% β-mercaptoethanol) at 50° C. for 60 minutes and re-probed with p42/44MAPK, Akt or CREB antibody to ensure equal loading of proteins. For immunoprecipitation experiments, cell lysates were pre-adsorbed on protein G-Sepharose for 1 hour at 4° C. and after brief centrifugation supernatants were incubated with anti-TrkA antibody for 24 hours at 4° C. with gentle rocking. Formed immunocomplexes were captured on protein G-Sepharose, eluted with SDS-PAGE sample buffer and analyzed by immunoblotting with antibody against phospho-TrkA receptor.

PC12 cells = details: serum-free RPMI/0.2% BSA, collagen coated dishes, 16-17 hours
PC12^TrkA cells [1] = assay: Neurite extension of PC12^TrkA cells; details: coated substratum or in medium (10 μM), 1% FCS
Experimental: PC12^nnr5 and PC12^TrkA cells were grown in RPMI with 10% FCS and 5% horse serum as described earlier (Green et al., J. Cell Biol. 102:830-843 (1986); Chuenkova and Pereira, Mol. Biol. Cell 11: 1487-1498 (2000)). Two approaches were used to study neurite extension: 1) Plating cells (1×10^5 cells/ml) on plastic wells (LABTECH 16-well slides, Nalge Nunc International, Naperville, Ill.) coated with synthetic peptides (100 μg/ml water, 4° C., overnight) or rat tail collagen (1 mg/ml PBS, 4° C., overnight). 2) Adding peptides in solution to cells plated on uncoated substratum. Cells were grown in 1% FCS-containing RPMI for 72 hours, and reacted with 0.5 mg/ml MTT (3-[4,5-dimethylthiazol-2-yl]-2,5-diphenyltetrazolium bromide) (SIGMA, St. Louis, Mo.) in serum-free medium for 1 hour at 37° C. Light microscopy was used to visualize viable cells (i.e., containing reduced insoluble formazan) with or without extended neurites (>5 μm in length). Cell viability was also determined using the CELLTITER 96 assay (Promega, Madison, Wis.) as follows: Cells, plated at 2×10^5/ml, were treated with peptides in serum-free medium for different times and exposed to CELLTITER 96 Aqueous One Solution for 1 hour at 37° C. […]

[2] = tested on: PC12 cells or Schwann cells; assay: Inhibition of apoptosis of PC12 cells or Schwann cells by synthetic peptides
PC12^TrkA cells [3] = assay: Survival of PC12^TrkA cells in serum-free medium (MTT, DAPI); details: peptides 10 μM, PDNF 500 ng/ml, NGF 30 ng/ml; 48 hours to 5 days
Experimental: PC12^nnr5 and PC12^TrkA cells were grown in RPMI with 10% FCS and 5% horse serum as described earlier (Green et al., J. Cell Biol. 102:830-843 (1986); Chuenkova and Pereira, Mol. Biol. Cell 11: 1487-1498 (2000)). Two approaches were used to study neurite extension: 1) Plating cells (1×10^5 cells/ml) on plastic wells (LABTECH 16-well slides, Nalge Nunc International, Naperville, Ill.) coated with synthetic peptides (100 μg/ml water, 4° C., overnight) or rat tail collagen (1 mg/ml PBS, 4° C., overnight). 2) Adding peptides in solution to cells plated on uncoated substratum. Cells were grown in 1% FCS-containing RPMI for 72 hours, and reacted with 0.5 mg/ml MTT (3-[4,5-dimethylthiazol-2-yl]-2,5-diphenyltetrazolium bromide) (SIGMA, St. Louis, Mo.) in serum-free medium for 1 hour at 37° C. Light microscopy was used to visualize viable cells (i.e., containing reduced insoluble formazan) with or without extended neurites (>5 μm in length). Cell viability was also determined using the CELLTITER 96 assay (Promega, Madison, Wis.) as follows: Cells, plated at 2×10^5/ml, were treated with peptides in serum-free medium for different times and exposed to CELLTITER 96 Aqueous One Solution for 1 hour at 37° C. 2) Apoptotic cells were identified by staining with DAPI (250 ng/ml) (SIGMA) 48 hours after cells were exposed to serum-free medium with or without additives in solution, as described earlier (Chuenkova and Pereira, Mol. Biol. Cell 11:1487-1498 (2000)). […]

neuroblastoma N18 cells = assay: Neurite outgrowth assay in N18 cells; details: soluble or immobilized on plastic (500 μg/ml coating), 17 hours
Experimental: 96-well microtiter plates were coated overnight at 4° C. with the TS or peptides or fragments thereof, or with control proteins laminin (Ln) or bovine serum albumin (BSA) at 500 μg/ml. After removing the compounds, the plates were further incubated with 1% BSA for 1 hour at room temperature and immediately used as substratum for PC12 or N18 (Prasad, K., Biol. Rev. Camb. Philos. Soc., 66:431-451 (1991)) cells in serum-free RPMI/0.2% BSA. Neurite outgrowth was measured using a phase-contrast microscope 17 hours later.

Substance	Erk1/2 phosphorylation in PC12 cells (Erk1/2)	neurite outgrowth in PC12 cells (PC12 cells)	neurite extension / differentiation of PC12^TrkA cells (PC12^TrkA cells [1])	suppression of apoptosis of PC12 cells or Schwann cells [2]	survival of PC12^TrkA cells in serum-free medium (PC12^TrkA cells [3])	neurite outgrowth in N18 cells (neuroblastoma N18 cells)
DSSAHGTPSTPA [peptide TR]	did not activate Erk	did not induce neurite outgrowth; also recorded: did not promote neurite outgrowth	did not spread and extend neurites; also recorded: did not support survival and neurite extension	did not inhibit apoptosis	inactive; also recorded: did not significantly promoted cell survival; also recorded: did not support survival and neurite extension	
laminin [reference compound]						induced
